Test results taken from patent US6737383B1, “Herbicidal oxadiazolidines” (priority 1999, dated 2004).

Key:
crabgrass = assay: Test B pre/postemergence crabgrass; format: in vivo, Digitaria sanguinalis
Outline: (§1)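 Herbicidal effect was estimated by eye on a ten-point control scale after plants spent twelve to sixteen days in a greenhouse following soil or foliar treatment. Foliar sprays targeted plants at one to four leaves; all doses were formulated in a non-phytotoxic solvent with surfactant.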

soybean = assay: Test B pre/postemergence soybean; format: in vivo, Glycine max
Outline: as §1

wheat = assay: Test B pre/postemergence wheat; format: in vivo, Triticum aestivum
Outline: as §1

wild oat [1] = assay: Test B pre/postemergence wild oat; format: in vivo, Avena fatua
Outline: as §1

smallflower flatsedge = assay: Test B flood test smallflower flatsedge; format: in vivo, Cyperus difformis
Outline: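 Plants were grown to the 2-leaf stage before treatment with test chemical, then held in a greenhouse for twelve to sixteen days. Injury was visually rated against untreated controls on a 0–10 scale, where 0 is no effect and 10 is complete control.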

winter wheat [2] = assay: Test E winter wheat; format: in vivo, Triticum aestivum; conditions: Postemergence, 0 to 100 scale
Outline: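 Visually scored herbicidal effect relative to untreated plants, taken ~21 to 28 days post-application; compound in solvent with surfactant; postemergence sprays at the 1- to 4-leaf stage.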

blackgrass = assay: Test E blackgrass; format: in vivo, Alopecurus myosuroides; conditions: Preemergence
green foxtail = assay: Test E green foxtail; format: in vivo, Setaria viridis; conditions: Preemergence
Italian ryegrass = assay: Test E Italian ryegrass; format: in vivo, Lolium multiflorum; conditions: Preemergence
winter wheat [3] = assay: Test E winter wheat; format: in vivo, Triticum aestivum; conditions: Preemergence
wild oat [4] = assay: Test E wild oat; format: in vivo, Avena fatua; conditions: Preemergence
winter barley = assay: Test E winter barley; format: in vivo, Hordeum vulgare; conditions: Preemergence
[5] = Preemergence, Rate 62 g/ha, scale of 0 to 10 where 0 is no effect and 10 is complete control
[6] = Preemergence, Rate 250 g/ha, scale of 0 to 10 where 0 is no effect and 10 is complete control
[7] = Preemergence, Rate 500 g/ha, scale of 0 to 10 where 0 is no effect and 10 is complete control
[8] = Rate 62 g/ha, Postemergence, scale of 0 to 10 where 0 is no effect and 10 is complete control
[9] = Rate 125 g/ha, Postemergence, scale 0 to 10
[10] = Rate 125 g/ha, Preemergence, scale of 0 to 10 where 0 is no effect and 10 is complete control
[11] = Rate 500 g/ha, Postemergence, scale 0 to 10
[12] = Rate 250 g/ha, Pre-emergence, flood-test species, scale 0 to 10, 0 is no effect, 10 is complete control
[13] = Rate 500 g/ha, Pre-emergence, flood test species, scale 0 to 10 (0 no effect, 10 complete control)
[14] = Rate 500 g/ha, 0 is no effect, 100 is complete control
[15] = Rate 500 g/ha, 0 to 100 scale where 0 is no effect and 100 is complete control
[16] = Rate 1000 g/ha, 0 to 100 scale, 0 no effect, 100 complete control
[17] = Postemergence, Rate 125 g/ha, scale 0 to 10, 0 is no effect, 10 is complete control
[18] = Postemergence, Rate 250 g/ha, scale 0 to 10, 0 is no effect, 10 is complete control
[19] = Postemergence, Rate 500 g/ha, scale of 0 to 10 where 0 is no effect and 10 is complete control
[20] = Preemergence, Rate 62 g/ha, scale 0 to 10 (0 no effect, 10 complete control)
[21] = Rate 500 g/ha, 0 to 100 scale (0 no effect, 100 complete control)

How did the “Crabgrass plant response rating” value (crabgrass; [5]) turn out when `C#CCn1c(=O)on(C(=O)N(c2ccc(F)cc2)C(C)C)c1=O` [Compound 212] was run?
Its value is 0.

And the “Crabgrass plant response rating” value (crabgrass; [6])?
Its value is 5.

What about the “Plant response rating, Crabgrass” value (crabgrass; [7]) of the same molecule?
The value was 5.

What about the “Crabgrass plant response rating” value (crabgrass; [8]) of the same molecule?
Its value is 6.

And the “Crabgrass plant response rating” value (crabgrass; [9])?
Its value is 6.

What about the “Crabgrass plant response rating” value (crabgrass; [10]) of the same molecule?
Its value is 4.

What about the “Plant response rating (0 to 10; 0 is no effect, 10 is complete control), Crabgrass” value (crabgrass; Rate 250 g/ha, Postemergence) of the same molecule?
Its value is 8.

And the “Crabgrass plant response rating” value (crabgrass; [11])?
The value was 9.

What about the “Soybean plant response rating” value (soybean; [5]) of the same molecule?
Its value is 0.

And the “Soybean plant response rating” value (soybean; [6])?
The value was 0.

And the “Plant response rating, Soybean” value (soybean; [7])?
Its value is 0.

And the “Soybean plant response rating” value (soybean; [8])?
Its value is 1.

And the “Soybean plant response rating” value (soybean; [9])?
The value was 2.

What about the “Soybean plant response rating” value (soybean; [10]) of the same molecule?
The value was 0.

What about the “Plant response rating (0 to 10; 0 is no effect, 10 is complete control), Soybean” value (soybean; Rate 250 g/ha, Postemergence) of the same molecule?
The value was 3.

What about the “Soybean plant response rating” value (soybean; [11]) of the same molecule?
Its value is 4.

And the “Wheat plant response rating” value (wheat; [5])?
Its value is 0.

What about the “Wheat plant response rating” value (wheat; [6]) of the same molecule?
Its value is 5.

What about the “Plant response rating, Wheat” value (wheat; [7]) of the same molecule?
The value was 7.

What about the “Wheat plant response rating” value (wheat; [8]) of the same molecule?
The value was 0.

And the “Wheat plant response rating” value (wheat; [9])?
Its value is 0.

What about the “Wheat plant response rating” value (wheat; [10]) of the same molecule?
The value was 0.

And the “Plant response rating (0 to 10; 0 is no effect, 10 is complete control), Wheat” value (wheat; Rate 250 g/ha, Postemergence)?
The value was 0.

What about the “Wild oats plant response rating” value (wild oat [1]; [5]) of the same molecule?
Its value is 0.

What about the “Wild oats plant response rating” value (wild oat [1]; [6]) of the same molecule?
The value was 3.

What about the “Plant response rating, Wild oats” value (wild oat [1]; [7]) of the same molecule?
The value was 7.

What about the “Wild oats plant response rating” value (wild oat [1]; [8]) of the same molecule?
The value was 0.

And the “Wild oats plant response rating” value (wild oat [1]; [9])?
Its value is 0.

What about the “Plant response rating (0 to 10; 0 is no effect, 10 is complete control), Wild oats” value (wild oat [1]; Rate 250 g/ha, Postemergence) of the same molecule?
The value was 0.

What about the “S. Flatsedge plant response rating” value (smallflower flatsedge; Rate 62 g/ha, headed Pre-emergence (flood test species), scale 0 to 10 (0 no effect, 10 complete control)) of the same molecule?
Its value is 0.

What about the “S. Flatsedge plant response rating” value (smallflower flatsedge; Rate 125 g/ha, Pre-emergence, flood test species, scale 0 to 10 where 0 is no effect and 10 is complete control) of the same molecule?
Its value is 0.

And the “S. Flatsedge plant response rating” value (smallflower flatsedge; [12])?
The value was 0.

And the “S. Flatsedge plant response rating” value (smallflower flatsedge; [13])?
The value was 0.

What about the “Plant response rating, Wheat (winter)” value (winter wheat [2]; Rate 1000 g/ha, 0 is no effect and 100 is complete control) of the same molecule?
Its value is 75.

And the “Plant response rating, Wheat (winter)” value (winter wheat [2]; [14])?
Its value is 70.

What about the “Blackgrass plant response rating (0 to 100 scale)” value (blackgrass; Rate 250 g/ha) of the same molecule?
The value was 20.

What about the “Plant response rating, Blackgrass” value (blackgrass; [15]) of the same molecule?
The value was 50.

And the “Plant response rating, Blackgrass” value (blackgrass; [16])?
The value was 65.

And the “Green foxtail plant response rating (0 to 100 scale)” value (green foxtail; Rate 250 g/ha)?
Its value is 55.

What about the “Plant response rating, Green foxtail” value (green foxtail; [15]) of the same molecule?
Its value is 65.

And the “Plant response rating, Green foxtail” value (green foxtail; [16])?
The value was 100.

And the “I. Ryegrass plant response rating (0 to 100 scale)” value (Italian ryegrass; Rate 250 g/ha)?
Its value is 60.

And the “Plant response rating, I. Ryegrass” value (Italian ryegrass; [15])?
The value was 70.

And the “Plant response rating, I. Ryegrass” value (Italian ryegrass; [16])?
Its value is 70.

And the “Wheat (winter) plant response rating (0 to 100 scale)” value (winter wheat [3]; Rate 250 g/ha)?
The value was 10.

And the “Plant response rating, Wheat (winter)” value (winter wheat [3]; [15])?
The value was 30.

What about the “Plant response rating, Wheat (winter)” value (winter wheat [3]; [16]) of the same molecule?
Its value is 60.

And the “Wild oat plant response rating (0 to 100 scale)” value (wild oat [4]; Rate 250 g/ha)?
The value was 60.

What about the “Plant response rating, Wild oat” value (wild oat [4]; [15]) of the same molecule?
The value was 70.

And the “Plant response rating, Wild oat” value (wild oat [4]; [16])?
The value was 70.

What about the “Barley (winter) plant response rating (0 to 100 scale)” value (winter barley; Rate 250 g/ha) of the same molecule?
The value was 20.

And the “Plant response rating, Barley (winter)” value (winter barley; [15])?
The value was 40.

And the “Plant response rating, Barley (winter)” value (winter barley; [16])?
Its value is 50.

What does the source list for `CC(C)N(C(=O)n1oc(=O)n(CCC#N)c1=O)c1ccc(F)cc1` [Compound 388]?
Plant response rating, Crabgrass (crabgrass; [17]): 4; Plant response rating, Crabgrass (crabgrass; [18]): 8; Crabgrass plant response rating (crabgrass; [19]): 9; Plant response rating, Crabgrass (crabgrass; [20]): 6; Crabgrass plant response rating (0 to 10 scale) (crabgrass; Preemergence, Rate 125 g/ha): 8; Crabgrass plant response rating (crabgrass; [6]): 10; Crabgrass plant response rating (crabgrass; [7]): 10; Crabgrass plant response rating (crabgrass; [8]): 4; Plant response rating, Soybean (soybean; [17]): 1; Plant response rating, Soybean (soybean; [18]): 1; Soybean plant response rating (soybean; [19]): 1; Plant response rating, Soybean (soybean; [20]): 0; Soybean plant response rating (0 to 10 scale) (soybean; Preemergence, Rate 125 g/ha): 0; Soybean plant response rating (soybean; [6]): 0; Soybean plant response rating (soybean; [7]): 4; Soybean plant response rating (soybean; [8]): 1; Plant response rating, Wheat (wheat; [17]): 0; Plant response rating, Wheat (wheat; [18]): 3; Wheat plant response rating (wheat; [19]): 8; Plant response rating, Wheat (wheat; [20]): 0; Wheat plant response rating (0 to 10 scale) (wheat; Preemergence, Rate 125 g/ha): 2; Wheat plant response rating (wheat; [6]): 4; Wheat plant response rating (wheat; [7]): 8; Wheat plant response rating (wheat; [8]): 0; Plant response rating, Wild oats (wild oat [1]; [17]): 0; Plant response rating, Wild oats (wild oat [1]; [18]): 0; Wild oats plant response rating (wild oat [1]; [19]): 6; Plant response rating, Wild oats (wild oat [1]; [20]): 3; Wild oats plant response rating (0 to 10 scale) (wild oat [1]; Preemergence, Rate 125 g/ha): 6; Wild oats plant response rating (wild oat [1]; [6]): 10; Wild oats plant response rating (wild oat [1]; [7]): 10; Wild oats plant response rating (wild oat [1]; [8]): 0; Plant response rating, S. Flatsedge (0 to 10 scale, 0 is no effect, 10 is complete control) (smallflower flatsedge; Rate 62 g/ha, flood test species, Pre-emergence, visual evaluation after twelve to sixteen days): 0; S. Flatsedge plant response rating (0 to 10 scale, 0 is no effect, 10 is complete control) (smallflower flatsedge; Rate 125 g/ha, under heading Pre-emergence, flood test species, visual evaluation after twelve to sixteen days): 0; S. Flatsedge plant response rating (smallflower flatsedge; [12]): 0; S. Flatsedge plant response rating (smallflower flatsedge; [13]): 0; Plant response rating, Wheat (winter) (winter wheat [2]; Rate 125 g/ha, 0 is no effect, 100 is complete control): 30; Plant response rating, Wheat (winter) (winter wheat [2]; Rate 250 g/ha, 0 is no effect, 100 is complete control): 30; Plant response rating, Wheat (winter) (winter wheat [2]; [14]): 65; Plant response rating, Blackgrass (blackgrass; Rate 125 g/ha, 0 to 100 scale): 0; Plant response rating, Blackgrass (blackgrass; Rate 250 g/ha, 0 to 100 scale): 0; Plant response rating, Blackgrass (blackgrass; [21]): 40; Plant response rating, Green foxtail (green foxtail; Rate 125 g/ha, 0 to 100 scale): 30; Plant response rating, Green foxtail (green foxtail; Rate 250 g/ha, 0 to 100 scale): 40; Plant response rating, Green foxtail (green foxtail; [21]): 85; Plant response rating, I. Ryegrass (Italian ryegrass; Rate 125 g/ha, 0 to 100 scale): 30; Plant response rating, I. Ryegrass (Italian ryegrass; Rate 250 g/ha, 0 to 100 scale): 40; Plant response rating, I. Ryegrass (Italian ryegrass; [21]): 60; Plant response rating, Wheat (winter) (winter wheat [3]; Rate 125 g/ha, 0 to 100 scale): 50; Plant response rating, Wheat (winter) (winter wheat [3]; Rate 250 g/ha, 0 to 100 scale): 50; Plant response rating, Wheat (winter) (winter wheat [3]; [21]): 60; Plant response rating, Wild oat (wild oat [4]; Rate 125 g/ha, 0 to 100 scale): 20; Plant response rating, Wild oat (wild oat [4]; Rate 250 g/ha, 0 to 100 scale): 20; Plant response rating, Wild oat (wild oat [4]; [21]): 30; Plant response rating, Barley (winter) (winter barley; Rate 125 g/ha, 0 to 100 scale (0 no effect, 100 complete control)): 10; Plant response rating, Barley (winter) (winter barley; Rate 250 g/ha, 0 to 100 scale, 0 no effect, 100 complete control): 20; Plant response rating, Barley (winter) (winter barley; [21]): 70
